The target in the experiment is full-length human ATR protein (ATR/ATRIP) (Homo sapiens (Human), UniProt Q13535). As to the kind of experiment: Binding Assay ATR (TR-FRET, tracer A displacement). The conditions noted are these: displacement of fluorescent tracer A from GST-ATR/ATRIP. From the text:
To determine of binding activity of the test compounds, full-length human ATR protein was expressed and purified together with ATRIP as described above. Furthermore, a fluorescently labelled compound (tracer A as described above) was used as a tracer molecule. Detection of the binding event of the tracer was achieved by time-resolved fluorescence energy transfer (TR-FRET). We used an anti-GST-Terbium antibody (CisBio) that binds to the GST-tag at the N-terminus of ATR-kinase. Excitation of Terbium with 337 nm light results in emission of fluorescent light with 545 nm. In case a tetrameric complex has formed (antiGST-Tb+GST-ATR+Strp2-ATRIP+tracer), part of the energy will be transferred from the Terbium to the fluorophore that itself emits light of 570 nm. Displacement of the fluorescent tracer by a test compound leads to a reduction of the TR-FRET-signal.
For the assay 50 nl of a 100-fold concentrated solution of the test compound in DMSO was pipetted into a black low volume 384 well microtiter plate (MTP, Greiner Bio-One, Frickenhausen, Germany). To prepare the ATR-working solution, ATR/ATRIP stock solution was diluted in assay buffer [50 mM HEPES (pH 7.0), 10 mM MgCl2, 1 mM DTT, 0.01% (w/v) Igepal, 0.01% (w/v) BSA] to 4.2 nM protein concentration (concentration may vary from lot to lot of protein preparation). AntiGST-Tb antibody was diluted to 4.2 nM. The ATR-working solution was incubated for 30 min at 22° C. prior to dispensing to pre-form the complex of antiGST-Tb+GST-ATR+ATRIP. Then, 3 μl of the ATR-working solution were added to the test compound and the mixture was incubated for 10 min at 22° C. to allow pre-binding of the test compounds to ATR/ATRIP. Then, 2 μl of a 100 nM solution of tracer A in assay buffer were added to the ATR-working solution. The resulting mixture was incubated for 30 min at 22° C. The measurement of the TR-FRET signal was performed in a standard HTRF-compatible MTP reader instrument (e.g. BMG Pherastar) by recording the fluorescence emissions at 545 nm and 570 nm after excitation at 337-350 nm. The ratio between emission at 570 nm divided by emission at 545 nm was calculated to give the well ratio. The experimental data (well ratios) were normalised by the following way: positive control contained ATR-working solution plus tracer A solution (=0% inhibition), the negative control contained all components except GST-ATR/ATRIP (=100% inhibition). Usually the compounds were tested on the same MTP in 11 different concentrations in the range of 20 μM to 0.1 nM (20 μM, 5.9 μM, 1.7 μM, 0.51 μM, 0.15 μM, 44 nM, 13 nM, 3.8 nM, 1.1 nM, 0.33 nM and 0.1 nM). The dilution series were prepared separately before the assay on the level of the 100 fold concentrated solutions in DMSO by serial 1:3.4 dilutions in duplicate values for each concentration. IC50 values were calculated by a 4 parameter fit using standard software (GraphPad prism or equivalent).

Experimental findings from patent publication US10729680B2, “5-substituted 2-(morpholin-4-yl)-1,7-naphthyridines” (BAYER PHARMA AKTIENGESELLSCHAFT, priority 2016, dated 2020) are described below.

As usually defined, the IC50 is the concentration that gives 50% inhibition. Read a high IC50 as weaker potency.

full-length human ATR protein (ATR/ATRIP), sequence (Q13535 other isoform, or with tags, fused parts or gaps): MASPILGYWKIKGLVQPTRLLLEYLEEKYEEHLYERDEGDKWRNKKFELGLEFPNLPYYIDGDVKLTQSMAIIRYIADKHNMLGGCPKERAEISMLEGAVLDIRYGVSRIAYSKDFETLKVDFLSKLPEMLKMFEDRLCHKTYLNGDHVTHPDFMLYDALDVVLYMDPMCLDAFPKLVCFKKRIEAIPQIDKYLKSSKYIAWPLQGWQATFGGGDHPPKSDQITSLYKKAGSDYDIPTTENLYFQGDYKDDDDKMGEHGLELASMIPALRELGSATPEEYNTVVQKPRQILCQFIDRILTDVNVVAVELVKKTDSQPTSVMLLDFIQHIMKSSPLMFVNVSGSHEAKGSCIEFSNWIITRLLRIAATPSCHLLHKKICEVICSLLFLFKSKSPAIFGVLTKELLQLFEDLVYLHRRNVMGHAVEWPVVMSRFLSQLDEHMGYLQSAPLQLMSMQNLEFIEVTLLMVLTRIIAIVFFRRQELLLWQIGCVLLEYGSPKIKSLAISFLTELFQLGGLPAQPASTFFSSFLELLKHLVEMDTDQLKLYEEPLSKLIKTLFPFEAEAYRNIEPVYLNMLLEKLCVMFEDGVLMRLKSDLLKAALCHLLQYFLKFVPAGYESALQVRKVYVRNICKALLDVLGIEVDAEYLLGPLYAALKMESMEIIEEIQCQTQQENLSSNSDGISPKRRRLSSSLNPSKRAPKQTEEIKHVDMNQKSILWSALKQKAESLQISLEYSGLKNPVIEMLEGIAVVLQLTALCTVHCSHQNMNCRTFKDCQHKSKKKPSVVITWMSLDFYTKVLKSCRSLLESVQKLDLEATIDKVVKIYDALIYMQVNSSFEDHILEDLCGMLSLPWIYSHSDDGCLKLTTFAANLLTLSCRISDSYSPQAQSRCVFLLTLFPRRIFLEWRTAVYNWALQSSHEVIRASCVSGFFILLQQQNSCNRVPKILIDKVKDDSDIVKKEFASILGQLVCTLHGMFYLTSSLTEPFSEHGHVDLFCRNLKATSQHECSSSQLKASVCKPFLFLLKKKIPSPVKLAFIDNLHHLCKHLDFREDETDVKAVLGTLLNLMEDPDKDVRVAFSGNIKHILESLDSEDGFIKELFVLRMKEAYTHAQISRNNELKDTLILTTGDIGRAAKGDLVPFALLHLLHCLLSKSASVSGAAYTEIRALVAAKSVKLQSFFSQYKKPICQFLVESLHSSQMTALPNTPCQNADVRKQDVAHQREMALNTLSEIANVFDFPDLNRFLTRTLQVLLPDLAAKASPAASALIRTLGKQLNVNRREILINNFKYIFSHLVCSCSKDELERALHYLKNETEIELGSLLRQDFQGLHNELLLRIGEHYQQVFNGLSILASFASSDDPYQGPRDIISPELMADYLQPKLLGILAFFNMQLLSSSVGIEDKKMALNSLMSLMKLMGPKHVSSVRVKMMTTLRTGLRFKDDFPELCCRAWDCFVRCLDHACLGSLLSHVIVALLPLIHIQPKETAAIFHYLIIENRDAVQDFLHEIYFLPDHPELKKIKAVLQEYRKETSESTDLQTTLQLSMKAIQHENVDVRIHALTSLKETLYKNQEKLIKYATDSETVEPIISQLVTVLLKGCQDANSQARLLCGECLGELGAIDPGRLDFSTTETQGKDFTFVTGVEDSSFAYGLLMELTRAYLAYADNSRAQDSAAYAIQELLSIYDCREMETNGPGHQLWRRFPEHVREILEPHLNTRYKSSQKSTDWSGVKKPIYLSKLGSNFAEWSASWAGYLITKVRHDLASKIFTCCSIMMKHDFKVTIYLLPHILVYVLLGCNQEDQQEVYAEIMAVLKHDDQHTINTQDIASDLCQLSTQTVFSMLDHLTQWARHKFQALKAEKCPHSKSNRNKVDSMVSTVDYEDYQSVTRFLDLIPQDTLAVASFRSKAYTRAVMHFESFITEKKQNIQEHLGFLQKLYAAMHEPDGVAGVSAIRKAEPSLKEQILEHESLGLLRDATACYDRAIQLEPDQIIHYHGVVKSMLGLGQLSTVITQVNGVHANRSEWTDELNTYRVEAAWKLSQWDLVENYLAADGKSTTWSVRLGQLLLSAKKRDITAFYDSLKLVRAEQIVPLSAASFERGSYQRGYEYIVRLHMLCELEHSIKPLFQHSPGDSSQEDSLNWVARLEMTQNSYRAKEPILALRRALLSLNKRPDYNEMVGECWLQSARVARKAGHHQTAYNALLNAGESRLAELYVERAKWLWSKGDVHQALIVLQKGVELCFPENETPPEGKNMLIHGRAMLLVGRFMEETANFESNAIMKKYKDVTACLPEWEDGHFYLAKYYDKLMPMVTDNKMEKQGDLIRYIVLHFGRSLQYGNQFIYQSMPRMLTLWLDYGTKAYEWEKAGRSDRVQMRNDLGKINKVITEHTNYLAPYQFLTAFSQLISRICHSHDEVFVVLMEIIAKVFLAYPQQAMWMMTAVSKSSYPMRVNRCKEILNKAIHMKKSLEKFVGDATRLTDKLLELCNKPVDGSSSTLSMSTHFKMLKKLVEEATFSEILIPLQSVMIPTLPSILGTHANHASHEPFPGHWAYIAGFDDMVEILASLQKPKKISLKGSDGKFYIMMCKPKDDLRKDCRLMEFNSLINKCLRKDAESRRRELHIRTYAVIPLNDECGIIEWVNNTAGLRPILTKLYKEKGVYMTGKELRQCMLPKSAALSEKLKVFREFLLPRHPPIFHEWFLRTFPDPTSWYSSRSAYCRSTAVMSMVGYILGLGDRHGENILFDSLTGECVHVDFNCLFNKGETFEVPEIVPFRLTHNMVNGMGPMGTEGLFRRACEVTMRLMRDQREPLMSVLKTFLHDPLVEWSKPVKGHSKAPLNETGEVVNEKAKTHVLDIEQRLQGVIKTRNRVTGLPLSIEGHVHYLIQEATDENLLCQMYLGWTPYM
full-length human ATR protein (ATR/ATRIP), sequence (Q8WXE1 other isoform, or with tags, fused parts or gaps partner): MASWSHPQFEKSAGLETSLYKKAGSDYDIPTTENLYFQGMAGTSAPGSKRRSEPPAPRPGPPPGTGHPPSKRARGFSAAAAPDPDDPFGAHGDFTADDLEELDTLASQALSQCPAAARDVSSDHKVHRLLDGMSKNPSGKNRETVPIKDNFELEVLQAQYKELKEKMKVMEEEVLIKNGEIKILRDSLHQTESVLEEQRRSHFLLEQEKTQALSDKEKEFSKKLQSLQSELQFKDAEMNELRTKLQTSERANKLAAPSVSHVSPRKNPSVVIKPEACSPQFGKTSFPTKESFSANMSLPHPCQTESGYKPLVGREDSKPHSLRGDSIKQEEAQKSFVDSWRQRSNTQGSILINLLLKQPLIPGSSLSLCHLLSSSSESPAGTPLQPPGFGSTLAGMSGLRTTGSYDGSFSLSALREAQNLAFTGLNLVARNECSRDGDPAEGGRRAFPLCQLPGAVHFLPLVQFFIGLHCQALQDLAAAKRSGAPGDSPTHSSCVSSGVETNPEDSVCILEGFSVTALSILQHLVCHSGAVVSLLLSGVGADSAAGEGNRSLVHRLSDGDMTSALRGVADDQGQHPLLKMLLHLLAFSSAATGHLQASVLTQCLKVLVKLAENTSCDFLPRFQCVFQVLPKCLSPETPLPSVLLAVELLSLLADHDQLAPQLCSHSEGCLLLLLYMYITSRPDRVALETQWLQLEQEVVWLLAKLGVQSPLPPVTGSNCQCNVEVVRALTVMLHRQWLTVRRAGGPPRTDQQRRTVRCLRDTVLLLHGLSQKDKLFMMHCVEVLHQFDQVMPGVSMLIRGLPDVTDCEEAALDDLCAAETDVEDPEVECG

With `Cc1cnccc1-c1cc(N2CCOC[C@H]2C)nc2c(-c3ccn[nH]3)ncc(C)c12` [Example 46, 5-methyl-2-[(3R)-3-methylmorpholin-4-yl]-4-(3-methylpyridin-4-yl)-8-(1H-pyrazol-5-yl)-1,7-naphthyridine], the IC50 turned out to be 7.78 nM. `Cc1cnc(-c2ccn[nH]2)c2nc(N3CCOC[C@H]3C)cc(-c3ccc(CO)s3)c12` [Example 47, (5-{5-methyl-2-[(3R)-3-methylmorpholin-4-yl]-8-(1H-pyrazol-5-yl)-1,7-naphthyridin-4-yl}thiophen-2-yl)methanol] registered an IC50 of 4.09 nM. In the case of `Cc1cnc(-c2ccn[nH]2)c2nc(N3CCOC[C@H]3C)cc(-c3ccc(C#N)c(F)c3)c12` [Example 48, 2-fluoro-4-{5-methyl-2-[(3R)-3-methylmorpholin-4-yl]-8-(1H-pyrazol-5-yl)-1,7-naphthyridin-4-yl}benzonitrile] it was 23.2 nM; in that of `Cc1cnc(-c2ccn[nH]2)c2nc(N3CCOC[C@H]3C)cc(-c3ccc(F)nc3)c12` [Example 49, 4-(6-fluoropyridin-3-yl)-5-methyl-2-[(3R)-3-methylmorpholin-4-yl]-8-(1H-pyrazol-5-yl)-1,7-naphthyridine], 28.6 nM. In the case of `COc1ncccc1-c1cc(N2CCOC[C@H]2C)nc2c(-c3ccn[nH]3)ncc(C)c12` [Example 50, 4-(2-methoxypyridin-3-yl)-5-methyl-2-[(3R)-3-methylmorpholin-4-yl]-8-(1H-pyrazol-5-yl)-1,7-naphthyridine] it was 72.2 nM. In the case of `Cc1cnc(-c2ccn[nH]2)c2nc(N3CCOC[C@H]3C)cc(-c3ccc(C(N)=O)cc3)c12` [Example 52, 4-{5-methyl-2-[(3R)-3-methylmorpholin-4-yl]-8-(1H-pyrazol-5-yl)-1,7-naphthyridin-4-yl}benzamide] it was 30.2 nM; in that of `Cc1cnc(-c2ccn[nH]2)c2nc(N3CCOC[C@H]3C)cc(-c3ccc(C(=O)N4CCCC4)cc3)c12` [Example 53, (4-{5-methyl-2-[(3R)-3-methylmorpholin-4-yl]-8-(1H-pyrazol-5-yl)-1,7-naphthyridin-4-yl}phenyl)(pyrrolidin-1-yl)methanone], 27.3 nM.

In turn, `Cc1cnc(-c2ccn[nH]2)c2nc(N3CCOC[C@H]3C)cc(-c3ccc(C(=O)NCc4ccccc4)cc3)c12` [Example 54, N-benzyl-4-{5-methyl-2-[(3R)-3-methylmorpholin-4-yl]-8-(1H-pyrazol-5-yl)-1,7-naphthyridin-4-yl}benzamide] returned an IC50 of 34.6 nM. In the case of `Cc1cnc(-c2ccn[nH]2)c2nc(N3CCOC[C@H]3C)cc(-c3cccc(C(=O)N(C)C)c3)c12` [Example 55, N,N-dimethyl-3-{5-methyl-2-[(3R)-3-methylmorpholin-4-yl]-8-(1H-pyrazol-5-yl)-1,7-naphthyridin-4-yl}benzamide] it was 40.6 nM; in that of `COCc1cccc(-c2cc(N3CCOC[C@H]3C)nc3c(-c4ccn[nH]4)ncc(C)c23)c1` [Example 56, 4-[3-(methoxymethyl)phenyl]-5-methyl-2-[(3R)-3-methylmorpholin-4-yl]-8-(1H-pyrazol-5-yl)-1,7-naphthyridine], 62.4 nM; in that of `Cc1cnc(-c2ccn[nH]2)c2nc(N3CCOC[C@H]3C)cc(-c3ccc4c(ccn4C)c3)c12` [Example 57, 5-methyl-4-(1-methyl-1H-indol-5-yl)-2-[(3R)-3-methylmorpholin-4-yl]-8-(1H-pyrazol-5-yl)-1,7-naphthyridine], 50 nM. Turning to `Cc1cnc(-c2ccn[nH]2)c2nc(N3CCOC[C@H]3C)cc(-c3cncc4ccccc34)c12` [Example 58, 4-(isoquinolin-4-yl)-5-methyl-2-[(3R)-3-methylmorpholin-4-yl]-8-(1H-pyrazol-5-yl)-1,7-naphthyridine], the IC50 was found to be 40 nM.

In the case of `COc1cncc(-c2cc(N3CCOC[C@H]3C)nc3c(-c4ccn[nH]4)ncc(C)c23)c1` [Example 59, 4-(5-methoxypyridin-3-yl)-5-methyl-2-[(3R)-3-methylmorpholin-4-yl]-8-(1H-pyrazol-5-yl)-1,7-naphthyridine], the IC50 was 42.6 nM.
